Measured values as given in PubChem BioAssay AID248 (DTP/NCI, 2004).
Values joined by “and” are separate entries in the source; they are usually repeats but may differ in a detail not shown here. Equal entries are not always repeated. Toxic doses and inconclusive results are not listed. Cut-off read from the data, not from the text of the source: active = T/C of 150% or more; inactive = T/C below 125%.

Tested on: L1210 leukemia ip in BDF1 mice, survival T/C
Assay: NCI In Vivo Anticancer Drug Screen. Data for tumor model L1210 Leukemia (intraperitoneal) in B6D2F1 (BDF1) mice
Conditions: endpoint: mean survival time, higher = longer survival
Outline: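 In this screen, tumor-bearing mice given compound are compared to those given vehicle, and their survival values are reported as a treated-to-control quotient.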

[1] = dose: 100.0 mg/kg/injection, schedule: Q01DX001 (ip), vehicle: saline
[2] = dose: 200.0 mg/kg/injection, schedule: Q01DX001 (ip), vehicle: saline
[3] = dose: 400.0 mg/kg/injection, schedule: Q01DX001 (ip), vehicle: saline
[4] = dose: 100.0 mg/kg/injection, schedule: Q01DX009 (ip), vehicle: Klucel (hydroxypropylcellulose) (HPC)
[5] = dose: 200.0 mg/kg/injection, schedule: Q01DX009 (ip), vehicle: Klucel (hydroxypropylcellulose) (HPC)
[6] = dose: 400.0 mg/kg/injection, schedule: Q01DX009 (ip), vehicle: Klucel (hydroxypropylcellulose) (HPC)
[7] = dose: 100.0 mg/kg/injection, schedule: Q04DX003 (ip), vehicle: saline with Tween-80
[8] = dose: 200.0 mg/kg/injection, schedule: Q04DX003 (ip), vehicle: saline with Tween-80
[9] = dose: 400.0 mg/kg/injection, schedule: Q04DX003 (ip), vehicle: saline with Tween-80
[10] = dose: 100.0 mg/kg/injection, schedule: Q01DX009 (ip), vehicle: saline
[11] = dose: 100.0 mg/kg/injection, schedule: Q04DX003 (ip), vehicle: saline
[12] = dose: 200.0 mg/kg/injection, schedule: Q01DX009 (ip), vehicle: saline
[13] = dose: 200.0 mg/kg/injection, schedule: Q04DX003 (ip), vehicle: saline
[14] = dose: 100.0 mg/kg/injection, schedule: Q01DX001 (ip), vehicle: Klucel (hydroxypropylcellulose) (HPC)
[15] = dose: 200.0 mg/kg/injection, schedule: Q01DX001 (ip), vehicle: Klucel (hydroxypropylcellulose) (HPC)
[16] = dose: 400.0 mg/kg/injection, schedule: Q01DX001 (ip), vehicle: Klucel (hydroxypropylcellulose) (HPC)
[17] = dose: 50.0 mg/kg/injection, schedule: Q01DX009 (ip), vehicle: saline with Tween-80
[18] = dose: 100.0 mg/kg/injection, schedule: Q01DX009 (ip), vehicle: saline with Tween-80
[19] = dose: 200.0 mg/kg/injection, schedule: Q01DX009 (ip), vehicle: saline with Tween-80
[20] = dose: 100.0 mg/kg/injection, schedule: Q01DX001 (ip), vehicle: carboxymethylcellulose (CMC)
[21] = dose: 200.0 mg/kg/injection, schedule: Q01DX001 (ip), vehicle: carboxymethylcellulose (CMC)
[22] = dose: 400.0 mg/kg/injection, schedule: Q01DX001 (ip), vehicle: carboxymethylcellulose (CMC)

Measured: T/C

Cc1ccc(C(C)C)cc1NC(=O)c1cccc([N+](=O)[O-])c1
inactive: dose: 100.0 mg/kg/injection, schedule: Q01DX009 (ip), vehicle: other 98 % of control | dose: 200.0 mg/kg/injection, schedule: Q01DX009 (ip), vehicle: other 88 % of control | dose: 400.0 mg/kg/injection, schedule: Q01DX009 (ip), vehicle: other 98 % of control

CCCCNc1nc(N)nc2c1nnn2C1OC(CO)C(O)C1O (stereo not given)
inactive: [1] 107 % of control | [2] 101 % of control | [3] 107 % of control

CSc1nc(SC)c2[nH]cnc2n1
inactive: [4] 100 % of control | [5] 105 % of control | [6] 98 % of control

c1nc(NCC2CC2)c2[nH]cnc2n1
inactive: [1] 97 % of control | [2] 97 % of control

CCOC(=O)C1SCSCC1=O (stereo not given)
inactive: [7] 102 % of control | [8] 98 % of control | [9] 98 % of control

S=C(C/C=C/CC(=S)SN(c1ccccc1)c1ccccc1)SN(c1ccccc1)c1ccccc1
inactive: [4] 91 % of control | [5] 95 % of control | [6] 90 % of control

C[N+](C)(C)CC[N+](C)(C)C
inactive: [10] 108 % of control | [11] 100 % of control | [12] 106 % of control | [13] 110 % of control | dose: 400.0 mg/kg/injection, schedule: Q01DX009 (ip), vehicle: saline 100 % of control | dose: 400.0 mg/kg/injection, schedule: Q04DX003 (ip), vehicle: saline 97 % of control

COc1ccc(C(O)C(C)C(O)(C(F)(F)F)C(F)(F)F)cc1 (stereo not given)
inactive: [14] 98 % of control | dose: 100.0 mg/kg/injection, schedule: Q04DX003 (ip), vehicle: Klucel (hydroxypropylcellulose) (HPC) 96 % of control | [15] 101 % of control | dose: 200.0 mg/kg/injection, schedule: Q04DX003 (ip), vehicle: Klucel (hydroxypropylcellulose) (HPC) 98 % of control | [16] 111 % of control | dose: 400.0 mg/kg/injection, schedule: Q04DX003 (ip), vehicle: Klucel (hydroxypropylcellulose) (HPC) 93 % of control

CCCN(CCC)c1ccc(/C=C\c2ccncc2)cc1
inactive: [14] 98 % of control | [15] 103 % of control | [16] 98 % of control

C/C(=N\O)c1ccc(OCC(O)CN2CCN(c3ccccc3)CC2)cc1 (stereo not given)
inactive: dose: 37.5 mg/kg/injection, schedule: Q04DX003 (ip), vehicle: saline with Tween-80 101 % of control | [17] 103 % of control | dose: 75.0 mg/kg/injection, schedule: Q04DX003 (ip), vehicle: saline with Tween-80 93 % of control | [18] 108 % of control | dose: 150.0 mg/kg/injection, schedule: Q04DX003 (ip), vehicle: saline with Tween-80 101 % of control | [19] 115 % of control

COc1ccc(CCNC(=O)C2(C(C)C)OC3(O)C4CCCN4C(=O)C(C(C)C)N3C2=O)cc1OC (stereo not given)
inactive: dose: 12.5 mg/kg/injection, schedule: Q04DX003 (ip), vehicle: alcohol 98 % of control | dose: 25.0 mg/kg/injection, schedule: Q04DX003 (ip), vehicle: alcohol 97 % of control | dose: 25.0 mg/kg/injection, schedule: Q04DX003 (ip), vehicle: saline with Tween-80 98 % of control | dose: 50.0 mg/kg/injection, schedule: Q04DX003 (ip), vehicle: alcohol 104 % of control | dose: 50.0 mg/kg/injection, schedule: Q04DX003 (ip), vehicle: saline with Tween-80 114 % of control | dose: 100.0 mg/kg/injection, schedule: Q04DX003 (ip), vehicle: alcohol 101 % of control | [7] 98 % of control | [8] 111 % of control

C=CCN(CC=C)P(=O)(OCC)OCC
inactive: dose: 12.5 mg/kg/injection, schedule: Q04DX003 (ip), vehicle: saline 105 % of control | dose: 25.0 mg/kg/injection, schedule: Q01DX009 (ip), vehicle: saline 97 % of control and 100 % of control | dose: 25.0 mg/kg/injection, schedule: Q04DX003 (ip), vehicle: saline 112 % of control | dose: 50.0 mg/kg/injection, schedule: Q01DX009 (ip), vehicle: saline 98 % of control and 105 % of control | dose: 50.0 mg/kg/injection, schedule: Q04DX003 (ip), vehicle: saline 108 % of control | [10] 104 % of control and 91 % of control | [11] 105 % of control | [12] 97 % of control and 92 % of control | [13] 94 % of control

OCc1cc(Cl)cc(Cl)c1O
inactive: [18] 97 % of control | [7] 97 % of control | [8] 98 % of control | [9] 101 % of control

Nc1nnnn1-c1ccccc1-c1ccccc1
inactive: [4] 101 % of control | [5] 104 % of control | [6] 114 % of control

C1=CC2OC3CCCCC3C2c2ccccc21 (stereo not given)
inactive: [20] 95 % of control | [21] 95 % of control | [22] 98 % of control

Cc1cccc(Cl)c1NC(=O)CS
inactive: [18] 104 % of control | [19] 101 % of control | dose: 400.0 mg/kg/injection, schedule: Q01DX009 (ip), vehicle: saline with Tween-80 106 % of control

CCC(C)CCC(C)C1CCC2C3CCC4C=C(OC(C)=O)CCC4(C)C3CCC12C (stereo not given)
inactive: dose: 100.0 mg/kg/injection, schedule: Q04DX002 (ip), vehicle: saline with Tween-80 103 % of control | dose: 200.0 mg/kg/injection, schedule: Q04DX002 (ip), vehicle: saline with Tween-80 98 % of control | dose: 400.0 mg/kg/injection, schedule: Q04DX002 (ip), vehicle: saline with Tween-80 98 % of control

O=C(Nc1nc2ccccc2s1)C(F)(F)F
inactive: [1] 102 % of control | [2] 93 % of control | [3] 102 % of control

Cc1ccc(C(=O)CCl)c(C)c1
inactive: dose: 12.5 mg/kg/injection, schedule: Q01DX009 (ip), vehicle: saline with Tween-80 95 % of control | dose: 25.0 mg/kg/injection, schedule: Q01DX009 (ip), vehicle: saline with Tween-80 100 % of control | [17] 103 % of control

ClC12C3CCCC1CCCC2CCC3 (stereo not given)
inactive: dose: 100.0 mg/kg/injection, schedule: Q04DX003 (ip), vehicle: other 117 % of control | dose: 200.0 mg/kg/injection, schedule: Q04DX003 (ip), vehicle: other 104 % of control | dose: 400.0 mg/kg/injection, schedule: Q04DX003 (ip), vehicle: other 104 % of control

c1ccc(-c2ccccc2SSc2ccccc2-c2ccccc2)cc1
inactive: [20] 96 % of control | [21] 105 % of control | [22] 91 % of control

Brc1ccc(/C(=N/Nc2ccccc2)Oc2ccccc2)cc1
inactive: [7] 94 % of control | [8] 94 % of control | [9] 102 % of control

CCC(O)C1CCCO1 (stereo not given)
inactive: dose: 25.0 mg/kg/injection, schedule: Q04DX002 (ip), vehicle: saline 103 % of control | dose: 50.0 mg/kg/injection, schedule: Q04DX002 (ip), vehicle: saline 92 % of control | [1] 104 % of control | dose: 100.0 mg/kg/injection, schedule: Q04DX002 (ip), vehicle: saline 103 % of control | [2] 95 % of control | [3] 93 % of control

CCC(C)Nc1ccc([N+](=O)[O-])cc1 (stereo not given)
inactive: dose: 75.0 mg/kg/injection, schedule: Q01DX009 (ip), vehicle: other 95 % of control | dose: 150.0 mg/kg/injection, schedule: Q01DX009 (ip), vehicle: other 102 % of control | dose: 300.0 mg/kg/injection, schedule: Q01DX009 (ip), vehicle: other 113 % of control
